Test results: patent US20070043091A1, “Kv1.5-BLOCKER FOR THE SELECTIVE INCREASE OF ATRIAL CONTRACTILITY AND TREATMENT OF CARDIAC [sequence]” (SANOFI-AVENTIS DEUTSCHLAND GMBH, priority 2004, published 2007)
Entries after “also recorded” stand apart in the source; their conditions may differ.

How the values were obtained:
[1] = tested on: pig left atrium; experiment: Effect of Kv1.5 blockers on atrial contractility in anesthetized pigs, sinus rhythm; assay type: in vivo, German Landrace pigs; details: 1 mg/kg i.v.
Protocol: (§1) A) Test of the Effect of Kv1.5 Blockers on Atrial Contractility in Anesthetized Pigs
(§2) Material and methods: German Landrace pigs were premedicated by an intramuscular injection of 2.5-3.5 mg/kg each of xylazine, tiletamine and zolazepam in a mixing syringe. The anesthesia was induced with pentobarbital (approx. 30 mg/kg i.v.) and maintained by continuous infusion of pentobarbital (12-17 mg/kg/h).
(§3) After induction of anesthesia and after a tracheotomy, the animals were intubated and ventilated with a mixture of ambient air with 40% oxygen.
(§4) The ventilation rate and volume were governed by regularly measured blood gas and pH levels. The body temperature was continuously recorded and controlled by a heated underlay and/or red light lamp and/or warming of the breathed air to keep it constant (about 37-38° C.).
The following blood vessels of the pigs were exposed and cannulated:
External jugular vein (anesthesia infusion), carotid artery (introduction of a tip manometer catheter in the left ventricle to record the pressure there), lateral saphenous vein (dosage of test substance), epigastrica cranialis superficialis vein (fluid infusion), femoral artery (peripheral blood pressure recording) and femoral vein (introduction of MAP catheter right atrium).
The parameters responsible for the contractility are determined using two ultrasonic sensors on the left atrium (P/N JP 5-2, Triton Technology®) [references 1 and 2]. These two piezoelectric sensors are implanted in the cranio-caudal direction through punctuate incisions at the extreme edge of the atrium. The incisions were each closed with a U stitch (2-0 Vicryl®).
The two ultrasonic sensors were than connected to the evaluation unit. In addition, a pressure-measuring catheter was implanted at the ventral edge of the atrium in order to record the left atrial pressure.
The left atrial systolic shortening (LASS) was determined from the atrial diameter at the start of the active atrial pressure curve and the minimum diameter. Since the atrial contractility depends on the initial extension, the left atrial systolic shortening was divided by the value at the start of active atrial contraction (LASS index). The maximum steepness of the contraction curve was determined by importing the raw data points to Microsoft Excel for calculation of the maximum steepness of the curve. In order to exclude breathing-related variations, at least 10 cardiac cycles were analyzed. This parameter, which likewise indicates an improved contractility, is referred to as LASS steepness.
Recording of the initial values was followed by infusion for 10 minutes of the vehicle which was used later and is composed of 0.5 ml of DMSO, 2.5 ml of PEG and 2.0 ml of glucose G20. […]

[2] = tested on: pig left atrium; experiment: Effect on atrial contractility in anesthetized pigs after one hour of induced atrial fibrillation; assay type: in vivo, German Landrace pigs
Protocol: as §1, §2, §3
In a further series of experiments, the test substance was administered only after one hour of atrial fibrillation induced by persistent high-frequency stimulation (1200 beats/min) of the right atrium. In this case, the parameters of atrial contractility were recorded before/after the period of fibrillation and after administration of the test substance and compared with those after the vehicle control.
as §4
The following blood vessels of the pigs were exposed and cannulated: […]
The parameters responsible for the contractility are determined using two ultrasonic sensors on the left atrium (P/N JP 5-2, Triton Technology®) [references 1 and 2]. […]
The left atrial systolic shortening (LASS) was determined from the atrial diameter at the start of the active atrial pressure curve and the minimum diameter. […] The maximum steepness of the contraction curve was determined by importing the raw data points to Microsoft Excel for calculation of the maximum steepness of the curve. In order to exclude breathing-related variations, at least 10 cardiac cycles were analyzed. […]

[3] = tested on: pigs with pericardial air instillation; experiment: Left ventricular ejection (cardiac output) in a model of diastolic dysfunction, pericardial air instillation; assay type: in vivo; details: for Cardiac output, % of the initial value before example 1 / Cardiac output, % of the initial value before instillation / Cardiac output, average: 3 mg/kg i.v. over 30 min
Protocol: B) Improved Left Ventricular Ejection after Kv1.5 Blockers in a Model of Diastolic Dysfunction Methods: Pigs were anesthetized as described in A) and thoracotomized. A flow sensor was attached over the aorta to measure the cardiac output. In a stable hemodynamic situation, air (approx. 30 ml) was instilled into the pericardial using a cannula. The intention of pericardial air instillation is to impede ventricular filling, which eventually leads to a decreased cardiac output (diastolic heart failure). […] The pericardial air instillation leads to a distinct reduction in the cardiac output (table 3).

[4] = time not given (start of infusion)

CCCCS(=O)(=O)Nc1ccccc1C(=O)N[C@H](CC)c1ccc(OC)nc1 (single isomer, unassigned) [Example 5]
LASS, increase in % ([1]; after vs before administration): 68% | LASS, absolute values, after administration ([1]; n = 8): 8.25 ± 1.43

COc1ccc(CC(=O)NCc2ccccc2-c2ccccc2C(=O)NCCc2cccnc2)cc1 [Example 1, N-(2-pyridin-3-ylethyl)-2′-{[2-(4-methoxyphenyl)acetylamino]-methyl}biphenyl-2-carboxamide]
LACC steepness, absolute values ([2]; 1 mg/kg i.v., after 1 hour atrial fibrillation): -0.197 cm/s | LACC steepness, in % of the initial value ([2]; 1 mg/kg i.v., after 1 hour atrial fibrillation, initial value = before AF): 112.6% | atrial function / contractility, in words ([2]; after one hour of atrial fibrillation): statistically significant improvement; also recorded: above the base line level | Cardiac output, % of the initial value before example 1 ([3]; 2′): 102% | Cardiac output, % of the initial value before instillation ([3]; 2′): 72% | Cardiac output, average ([3]; 2′): 1.55 L/min | Cardiac output, % of the initial value before example 1 ([3]; 5′): 104% | Cardiac output, % of the initial value before instillation ([3]; 5′): 73% | Cardiac output, average ([3]; 5′): 1.58 L/min | Cardiac output, % of the initial value before example 1 ([3]; 10′): 111% | Cardiac output, % of the initial value before instillation ([3]; 10′): 78% | Cardiac output, average ([3]; 10′): 1.69 L/min | Cardiac output, % of the initial value before example 1 ([3]; 15′): 117% | Cardiac output, % of the initial value before instillation ([3]; 15′): 82% | Cardiac output, average ([3]; 15′): 1.78 L/min | Cardiac output, % of the initial value before example 1 ([3]; 20′): 121% | Cardiac output, % of the initial value before instillation ([3]; 20′): 84% | Cardiac output, average ([3]; 20′): 1.84 L/min | Cardiac output, % of the initial value before example 1 ([3]; 25′): 123% | Cardiac output, % of the initial value before instillation ([3]; 25′): 86% | Cardiac output, average ([3]; 25′): 1.88 L/min | Cardiac output, % of the initial value before example 1 ([3]; 30′): 125% | Cardiac output, % of the initial value before instillation ([3]; 30′): 87% | Cardiac output, average ([3]; 30′): 1.90 L/min | Cardiac output, % of the initial value before example 1 ([3]; 35′): 120% | Cardiac output, % of the initial value before instillation ([3]; 35′): 85% | Cardiac output, average ([3]; 35′): 1.83 L/min | Cardiac output, % of the initial value before example 1 ([3]; 40′): 117% | Cardiac output, % of the initial value before instillation ([3]; 40′): 83% | Cardiac output, average ([3]; 40′): 1.79 L/min | Cardiac output, % of the initial value before example 1 ([3]; 50′): 116% | Cardiac output, % of the initial value before instillation ([3]; 50′): 82% | Cardiac output, average ([3]; 50′): 1.76 L/min | Cardiac output, % of the initial value before example 1 ([3]; 60′): 111% | Cardiac output, % of the initial value before instillation ([3]; 60′): 79% | Cardiac output, average ([3]; 60′): 1.69 L/min | Cardiac output, % of the initial value before example 1 ([3]; 70′): 108% | Cardiac output, % of the initial value before instillation ([3]; 70′): 78% | Cardiac output, average ([3]; 70′): 1.65 L/min | Cardiac output, % of the initial value before example 1 [3, 4]: 100% | Cardiac output, % of the initial value before instillation [3, 4]: 71% | Cardiac output, average [3, 4]: 1.53 L/min | maximum increase in the reduced cardiac output ([3]; 3 mg/kg infused in 30 min, n=11): 25% | LACC steepness, absolute value, after administration [1]: -0.152 ± 0.02 cm/s | LACC steepness, increase in % ([1]; after vs before administration): +38.2%
